From the NIST ThermoML archive (doi:10.1016/j.tca.2014.01.028)
Numbers after ± are expanded uncertainties.

Assays:
[1] = Molar enthalpy of transition or fusion; details: Crystal; DSC
[2] = Crystal; DTA

Molar enthalpy of transition or fusion [1]: 7.65 ± 0.217 kcal/mol | Normal melting temperature [2]: 135.60 ± 0.5 °C
SMILES: O=C(c1ccccc1)C(C(=O)c1ccccc1)[C@H](C[N+](=O)[O-])c1ccccc1
